Here are results for three compounds from patent US5240933A, “14-hydroxy-N-(2-methoxyethyl)-7,8-dihydromorphine and -norisomorphine, processes for the preparation thereof and the use thereof as pharmaceutical compositions” (Boehringer Ingelheim GmbH, priority 1991, dated 1993).

The nature of test [1]: phenylquinone writhing test (analgesic effect). It is filed as in vivo. As to the method: (§1) In this test, compound 1a according to the invention has a mean effective dose (MED) of 2.5 mg/kg p.o. (64% effect) and compound 1b according to the invention has an MED of 10 mg/kg p.o. (71% effect). […] This small sodium shift indicates the […] nature of the compounds according to the invention.
Background: An intraperitoneal irritant provokes the stretching counted in writhing tests.

Test [2] concerns the target opiate receptor (Homo sapiens, UniProt P35372). The test can be described thus: opiate receptor binding test with [^3 H]-dihydromorphine as radioligand. As to the method: as §1
In test [3] the target is opiate receptor. The test is described as follows: opiate receptor binding test with [^3 H]-naloxon as radioligand. As to the method:
as §1

Where [4] appears, read: with the addition of 0.1M sodium chloride.

opiate receptor (Homo sapiens, UniProt P35372), sequence (P35372 whole entry): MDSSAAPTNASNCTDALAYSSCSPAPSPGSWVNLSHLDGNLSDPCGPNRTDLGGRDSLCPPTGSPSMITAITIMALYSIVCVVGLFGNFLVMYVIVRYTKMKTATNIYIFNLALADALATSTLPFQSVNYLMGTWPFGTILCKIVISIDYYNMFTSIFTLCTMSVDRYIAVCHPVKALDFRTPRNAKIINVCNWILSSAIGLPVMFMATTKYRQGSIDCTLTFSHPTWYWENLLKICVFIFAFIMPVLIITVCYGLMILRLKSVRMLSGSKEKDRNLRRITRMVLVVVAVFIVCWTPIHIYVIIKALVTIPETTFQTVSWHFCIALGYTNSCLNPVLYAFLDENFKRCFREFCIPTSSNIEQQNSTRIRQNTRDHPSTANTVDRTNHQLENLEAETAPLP

Take `CC(C)Cc1ccc(C(C)C(=O)O)cc1` (stereo not drawn) [Ibuprofen, reference compound]: in test [1] (dose of 25 mg/kg p.o., comparison compound), the effect amounted to 65%.
Broadly, the Ki is the equilibrium dissociation constant of an inhibitor or competing ligand from its target. Regarding `COCCN1CC[C@]23c4c5ccc(O)c4O[C@H]2[C@@H](O)CC[C@@]3(O)[C@H]1C5` [compound 1a, 14-hydroxy-N-(2-methoxyethyl)-7,8-dihydronormorphine], the Ki stood at 0.91 nM in test [2], 2.39 nM in test [3] (setting [4]) and 2.14 nM in test [3] (without sodium chloride). In test [1] (at MED of 2.5 mg/kg p.o.), this compound had an effect of 64%.
For `COCCN1CC[C@]23c4c5ccc(O)c4O[C@H]2[C@H](O)CC[C@@]3(O)[C@H]1C5` [compound 1b, 14-hydroxy-N-(2-methoxyethyl)-7,8-dihydronorisomorphine], the results for the Ki in test [2], in test [3] (setting [4]) and in test [3] (without sodium chloride) were 1.79 nM, 1.19 nM and 1.07 nM, respectively. The same compound had an effect in test [1] (at MED of 10 mg/kg p.o.) of 71%.
